Laboratory results from patent US20140342913A1, “GENES PROVIDING TOLERANCE TO PDS INHIBITORS” (SYNGENTA PARTICIPATIONS AG, priority 2013, published 2014).

System: 18900 transformants (soybean plants)
Experiment: Herbicide resistance of soybean transformants with stacked ADSS Q289N gene
Format: in vivo
Settings: soybean transformed with 18900 (Rhodobacter CrtI + Arabidopsis ADSS Q289N)
Excerpt: In order to test expression of stacked genes when phytoene desaturease is used as selectable marker, we constructed several vectors with Anemonia majano cyan fluorescent protein gene AmCyan and herbicide resistance (ADSS) or detoxification (cytochrome P450) genes as examples. Binary transformation vector 18340 (FIG. 7) contains Gloeobacter CrtI expression cassette linked to an AmCyan expression cassette. 18340 was derived from insertion of prCMP-AmCyan-tNOS cassette into 18239. Similarly, binary transformation vector 18341 (FIG. 8) contains Rhodobacter CrtI and AmCyan expression cassettes and was constructed by inserting the prCMP-AmCyan-tNOS cassette into 18238. 18900 (FIG. 9) is a binary vector containing Rhodobacter CrtI expression cassette linked with an Arabidopsis adenylosuccinate synthase (ADSS) Q289N mutant expression cassette under the control of prCMP promoter. 18932 (FIG. 10) is a binary vector containing Rhodobacter CrtI expression cassette and an expression cassette for rice cytochrome P450 monooxygenase gene (Genbank accession # OSJNBb0048A17.18) under the control of prCMP promoter. […]
Binary vectors 18340, […], 18900 and 18932 were transformed into soybean plants using norfurazon as selection agent. […] 18932 transformants were evaluated for their resistance against HPPD herbicide mesotrione.

For `O=C1NC(=O)[C@]2(N1)O[C@H](CO)[C@@H](O)[C@H]2O` [hydantocidin], the “resistance of transformants to herbicidal compound” value was “resistant”.
